{
  "source": "patent US9970938B2",
  "about": "“Use of BUBR1 as a biomarker of drug response to furazanobenzimidazoles” (Basilea Pharmaceutica AG, priority 2011, dated 2018)",
  "format_in_all_cases": "cell-based, human",
  "key": {"HeLa cells [1]": {"tested_on": "HeLa cells", "assay": "BUBR1 siRNA pool, tumour cell phenotype and cell number by immunostaining", "conditions": "50 nM BAL27862, 24 hours, 48 hours after siRNA", "protocol": "In order to show BUBR1 is a biomarker of resistance, siRNA experiments were performed. For siRNA experiments to assess effects on tumour cell phenotype and numbers (FIG. 8), HeLa (ATCC reference CCL-2) cervical cancer cells were cultured at 37° C. and 5% CO2 in DMEM with 10% FCS (Invitrogen). 1000 HeLa cells per well were seeded into black 384 well multititer plates (BD Falcon). Cells were reversely transfected with 20 nM non-targeting control siRNA (ON-Target-plus non-targeting pool D001810, Dharmacon) or a mixture of four BUBR1 siRNAs (ON-Target-plus Smartpool L-004101, Dharmacon, see sequence information below) using Dharmafect1 (Dharmacon, Thermo) transfection reagent. 48 hours after cell seeding and siRNA transfection, one replicate pair of siRNA clones was treated with BAL27862 (50 nM, 0.1% DMSO) and another replicate pair with control solution (0.1% DMSO) for 24 hours. […] Based on the immunostaining, the morphology of treated cells was analysed using a multiparametric approach (BD Pathway 855 fluorescence microscope; 20× objective) with appropriate software. The number of cells per well was also calculated based on Hoe33342 staining of nuclei. […]"}, "HCT116 cells": {"tested_on": "HCT116 cells", "assay": "Crystal Violet assay of siRNA-treated cells", "conditions": "BUBR1 siRNA pool, 50 nM, 48 hours", "protocol": "(§1) For siRNA experiments to assess effects on BUBR1 expression levels by immunoblotting and effects on tumour cell proliferation and viability using the YO-PRO assay (FIGS. 7, 9,10 and 11), and Crystal Violet Assay (FIGS. 12 and 13), cells were seeded in 6 well plates at an appropriate density: HeLa (cervical cancer cells; ATCC reference CCL-2) 2.5E+04 (for YO-PRO) or 4.0E+04 (for Crystal Violet) cells per well, H460 (NSCLC cells; ATCC reference HTB-177) 5.0E+04 cells per well, MCF-7 (breast carcinoma cells; ATCC reference HTB-22) 2.4E+05 cells per well, Panc1 (pancreatic cancer cells, ATCC reference CRL-1469) and HCT116 (colon cancer cells, ATCC reference CCI-247) 8E+04 cells per well, and were cultured at 37° C. and 5% CO2 in RPMI-1640 or DMEM containing 10% FCS (complete medium). Cells were transfected the following day with a mixture of four BUBR1 siRNAs (ON-Target-plus Smartpool L-004101, Dharmacon, see sequence information below), the four individual BUBR1 siRNAs (ON-Target-plus Set of four upgrade LU-004101) or non-targeting control siRNAs (ON-Target-plus non-targeting pool D001810, Dharmacon), using Hiperfect (Qiagen) for H460, Panc1 and HCT116 or Lipofectamine2000 (Invitrogen) for HeLa and MCF-7 according to manufacturer's instructions. The final concentration of siRNA was 10 nM (H460) or 20-30 nM (HeLa) or 20 nM (MCF-7, Panc1, HCT116). Cells were maintained at 37° C. and 5% CO2 for 24 hours before compound treatment for 48 hours, followed by YO-PRO analysis, Crystal Violet Assay or extraction for immunoblot assay. ON-Target-plus siRNAs are dual-strand siRNAs, chemically modified to improve specificity for the desired target.\n(§2) Cells were incubated for 48 hours with DMSO or BAL27862 diluted in complete medium (final concentration DMSO 0.5%). After medium was removed, cells were fixed and stained by adding 1 ml Crystal Violet Staining (0.2% Crystal Violet in 50% Methanol) per well. Plates were incubated for 1 hour at room temperature. Subsequently the stain was decanted and plates were washed 4 times with double-distilled water. Plates were air-dried for several hours. Stain was dissolved by adding 2 ml buffer (0.1 M Tris pH 7.5, 0.2% SDS, 20% Ethanol) per well and shaking the plates. Absorbance at 590 nm was measured using a SpectraMax M2^e plate reader (Molecular Devices). In order to subtract starting cell numbers, a control plate was fixed and stained on the same day the compound was added. Final results were calculated by subtracting the starting cell absorbance from that of control (DMSO) or compound treated cells. Values lower than zero indicate cell death."}, "HeLa cells [2]": {"tested_on": "HeLa cells", "assay": "Crystal Violet assay of siRNA-treated cells", "conditions": "48 hours", "protocol": "as §1, §2"}, "Panc1 cells": {"tested_on": "Panc1 cells", "assay": "Crystal Violet assay of siRNA-treated cells", "conditions": "BUBR1 siRNA pool, 30 nM, 48 hours", "protocol": "as §1, §2"}, "HeLa cells [3]": {"tested_on": "HeLa cells", "assay": "YO-PRO assay of siRNA-treated cells", "conditions": "BUBR1 siRNA pool, 48 hours treatment", "protocol": "For siRNA experiments to assess effects on BUBR1 expression levels by immunoblotting and effects on tumour cell proliferation and viability using the YO-PRO assay (FIGS. 7, 9,10 and 11), and Crystal Violet Assay (FIGS. 12 and 13), cells were seeded in 6 well plates at an appropriate density: HeLa (cervical cancer cells; ATCC reference CCL-2) 2.5E+04 (for YO-PRO) or 4.0E+04 (for Crystal Violet) cells per well, H460 (NSCLC cells; ATCC reference HTB-177) 5.0E+04 cells per well, MCF-7 (breast carcinoma cells; ATCC reference HTB-22) 2.4E+05 cells per well, Panc1 (pancreatic cancer cells, ATCC reference CRL-1469) and HCT116 (colon cancer cells, ATCC reference CCI-247) 8E+04 cells per well, and were cultured at 37° C. and 5% CO2 in RPMI-1640 or DMEM containing 10% FCS (complete medium). […]\n12.5 μl YO-PRO®-1 iodide (491/509)(Invitrogen/Molecular Probes, # Y-3603; 1 mM in DMSO) were added to 1 ml 5-times concentrated YO-PRO buffer (100 mM Na-citrate, pH 4.0; 134 mM NaCl) to produce the YO-PRO Mix. […] The uptake of YO-PRO dye into cells was assessed by using a SpectraMax M2^e plate reader (Molecular Devices) using 485 nm excitation and 538 nm emission at a cutoff of 530 nm. […] Fluorescent read-out was performed in a SpectraMax M2^e plate reader (Molecular Devices) using 485 nm excitation and 538 nm emission at a cut off of 530 nm. […]"}},
  "data": [
    {"smiles": "N#CCCNc1nonc1-c1nc2ccccc2n1CC(=O)c1ccc(N)cc1", "note": "[BAL27862, 3-(4-{1-[2-(4-Amino-phenyl)-2-oxo-ethyl]-1H-benzoimidazol-2-yl}-furazan-3-ylamino)-propionitrile]", "values": [
      {"measurement": "HeLa cell number and fraction of cells with a normal phenotype after pooled BUBR1 siRNA", "setting": "HeLa cells [1]", "value": "BUBR1 was required for optimal effects"},
      {"measurement": "cellular proliferation with reduced BUBR1 expression", "setting": "HCT116 cells", "value": "same effects were again observed"},
      {"measurement": "cellular proliferation with reduced BUBR1 expression", "setting": "HeLa cells [2]; BUBR1 siRNA pool, 50 nM", "value": "same effects were again observed"},
      {"measurement": "effect on cellular proliferation after individual BUBR1 siRNAs", "setting": "HeLa cells [2]; siRNA #1-4, 50 nM", "value": "decreased the effect of BAL27862 on cellular proliferation"},
      {"measurement": "cellular proliferation with reduced BUBR1 expression", "setting": "Panc1 cells", "value": "same effects were again observed"},
      {"measurement": "antiproliferative effect with reduced BUBR1 expression", "setting": "HeLa cells [3]", "value": "dramatically reduced"},
      {"measurement": "tumour cell death with reduced BUBR1 expression", "setting": "HeLa cells [3]", "value": "no increase in tumour cell death observed"}
    ]}
  ]
}
